Reference: article PMC6713104, “New peptide derived antimalaria and antimicrobial agents bearing sulphonamide moiety” (Journal of Enzyme Inhibition and Medicinal Chemistry, 2019)
Converted amounts (≈) assume the structure as drawn. Where two headings read alike, the source gives them in different places. Non-standard residues stand in square brackets, D forms with d. Residues, ends and D or L forms follow the SMILES beside them. ξ: configuration not given here. *: point of attachment. Tos = Cc1ccc(S(=O)(=O)*)cc1; βNA = c1ccc2cc(N*)ccc2c1; ξA = CC(N)C(=O)O

Assays:
A. niger = assay: Antimicrobial MIC, agar cup diffusion; type: cell-based; conditions: Aspergillus niger, read-out: MIC (minimum inhibitory concentration)
[1] = Renal or kidney function test; type: in vivo; conditions: mice, 10 mg/kg
Description: (§1) Twenty-four hours before the injecting the compounds, the blood sample of five mice was taken and it was also taken after the last day of treatment, the animals were sacrificed by cervical dislocation and the blood samples were collected by heart puncture. The blood samples for haematological parameters (red blood cell (RBC) count, white blood cell (WBC) count, packed cell volume (PCV), and hemoglobin (HGB)) were collected into EDTA bottles and analyzed using an automated machine (Automated CBC Analyzer: Sysmex KX-21). Kidney function tests carried out with the blood of the rats fed with the sulfonamide derivatives were, creatinine and albunim. The method reported by Kaplan and Tengv[33] was used in the determination of creatinine.

E. coli = assay: Antimicrobial MIC, agar cup diffusion; type: cell-based; conditions: Escherichia coli, read-out: MIC (minimum inhibitory concentration)
[2] = tested on: Plasmodium berghei infection in mice; assay: In vivo antimalaria test; conditions: P. berghei infected mice; for inhibition in vivo at 100 mg/kg / inhibition in vivo at 200 mg/kg: Plasmodium berghei, oral
Description: Experimental Design and Treatment of Mice. Methods of Peter et al.[30] and Kalra et al.[31] for antiplasmodial assay against Plasmodium berghei infection in mice with some modifications were employed. About eighty infected mice were randomly divided into five groups, each having […] mice. The inoculum was prepared from a donor mouse with rising parasitemia of 60.42%. After 7 days of infection, animals begin to receive treatment (100 and 200 mg/kg b wt.) of the synthesized compounds (7a–7n) for 12 days with constant check of the percentage of parasitemia after a 4-day interval. Artemisinin (100 and 200 mg/kg body weight.) was given to the other mice in group three as positive control, group four was not treated and group five was not infected. All the compounds and the drugs were given orally by using a standard intragastric tube. For all parasitemia determination, blood samples were collected from tail snip of each mouse and thin smears prepared and stained with 10% Giemsa solution. The uniform fields of each stained slide (for each mouse) were examined under microscope with an oil immersion objective of 100X magnification power and average percent of parasitemia was determined.
To determine the in vivo activity, the compounds were tested against P. berghei NK(65 Strain) infection mice., the animals were obtained from Nigeria institute for Trypanosoma and onchocercarioses Research (NTIR) Vom, Plateau State Nigeria. The permission and approval for the use of animals in this experiment were granted by the Animal Ethics Committee, Federal College of Vetrenary Medical Laboratory, Vom, Plateau State. Method of Peter et al.[30], for antiplasmodial assay against P. berghei in mice with some modification were employed. Artemisimin was used as treated control of the experiments. The percentage inhibition of parasite multiplication was calculated comparing the treated group with untreated group by means of the following formula[39] [(A − B)/A] × 100; where A = parasitaemia in the untreated group and B = parasitemia in the test group. […] Most of the compounds were active against P. berghei after 7 days post-infection by reducing the parasiteamia by at least 40% when in a dose of 100 mg/kg (Table 5). The inhibition of parasitaemia increased on 12th day post infection for almost all the compounds. […] However in consideration of the compounds ability to inhibit parasitaemia to the control drug. […] These compounds should be considered for further studies because of its promising activities.

C. albicans = assay: Antimicrobial MIC, agar cup diffusion; type: cell-based; conditions: Candida albicans, read-out: MIC (minimum inhibitory concentration)
S. typhi = assay: Antimicrobial MIC, agar cup diffusion; type: cell-based; conditions: Salmonella enterica, read-out: MIC (minimum inhibitory concentration)
Liver function tests = type: in vivo; set-up: Glucose: unit not given here; conditions: mice, 10 mg/kg
Description: as §1, with “KX-21). The liver” for “KX-21). Kidney”, “derivatives were aspartate aminotransperase (AST), alanine transaminase (ALT)” for “derivatives were, creatinine”, “and alkaline phosphatase (ALP). Standard laboratory procedure according to Reitman” for “and albunim. The method reported by Kaplan”, “and Franke[32]” for “and Tengv[33]”, “used for” for “used in”, “of parameters.” for “of creatinine.”

P. falciparum strain W2 = assay: In vitro antimalarial assay; type: cell-based; conditions: Plasmodium falciparum, W2, P. falciparum
Haematological analysis = type: in vivo, mice
Description: Twenty-four hours before the injecting the compounds, the blood sample of five mice was taken and it was also taken after the last day of treatment, the animals were sacrificed by cervical dislocation and the blood samples were collected by heart puncture. The blood samples for haematological parameters (red blood cell (RBC) count, white blood cell (WBC) count, packed cell volume (PCV), and hemoglobin (HGB)) were collected into EDTA bottles and analyzed using an automated machine (Automated CBC Analyzer: Sysmex KX-21).
The blood samples for haematological parameters (red blood cell (RBC) count, white blood cell (WBC) count, packed cell volume (PCV), and haemoglobin (HGB)) were collected into EDTA bottles and analyzed using an automated machine (Automated CBC Analyzer: Sysmex KX-21) (Table 8). From the analysis, even though there is a decrease in the value of RBC, PCV and HB, it is observed that there is no significant changes in the parameters that were analyzed for the control and the test compounds.

B. subtilis = assay: Antimicrobial MIC, agar cup diffusion; type: cell-based; conditions: Bacillus subtilis; B. subtilis; read-out: MIC (minimum inhibitory concentration)
K. pneumoniae = assay: Antimicrobial MIC, agar cup diffusion; type: cell-based; conditions: Klebsiella pneumoniae, read-out: MIC (minimum inhibitory concentration)
[3] = 168 h, read-out: % inhibition 7 days post-treatment (100 mg/kg), day 7
[4] = 168 h, read-out: % inhibition 7 days post-treatment (200 mg/kg), day 7
[5] = 288 h, read-out: % inhibition 12 days post-treatment (100 mg/kg), day 12
[6] = 288 h, read-out: % inhibition 12 days post-treatment (200 mg/kg), day 12
[7] = 48 h, >99% of parasites inhibited from developing to schizonts

Row | SMILES | MIC (A. niger) | Albumin ([1]; After) | Creatinine ([1]; After) | Albumin ([1]; Before) | Creatinine ([1]; Before) | MIC (E. coli) | inhibition in vivo at 100 mg/kg [2, 3] | inhibition in vivo at 200 mg/kg [2, 4] | inhibition in vivo at 100 mg/kg [2, 5] | inhibition in vivo at 200 mg/kg [2, 6] | MIC (C. albicans) | MIC (S. typhi) | ALT (Liver function tests; After) | AST (Liver function tests; After) | Bilirubin (Liver function tests; After) | Glucose (Liver function tests; After) | T.P. (Liver function tests; After) | ALT (Liver function tests; Before) | MIC (P. falciparum strain W2; [7]) | melting point | other results
1 | Cc1ccc(NC(=O)CNC(=O)C(C)NS(=O)(=O)c2ccccc2)cc1 (centres unmarked) [Compound 7e] | 2090 µg/mL (≈ 5560 µM) | 3.5 g/dL | 0.3 mg/dL | 4.1 g/dL | 0.3 mg/dL | 6330 µg/mL (≈ 16900 µM) | 62.3% | 40.2% | 66.7% | 50.7% | 28.8 µg/mL (≈ 76.7 µM) | 194 µg/mL (≈ 517 µM) | 22.0 µ/L | 60.5 µ/L | 0.2 mg/dL | 5.0 | 4.5 g/dL | 24.0 µ/L | 0.05 µM (≈ 0.0188 µg/mL) | 160 to 162 °C | ability to inhibit parasitaemia compared to the control drug ([2]; in words): almost the same or better activity compared to the artemisinin; AST (Liver function tests; Before): 64.0 µ/L; Bilirubin (Liver function tests; Before): 0.3 mg/dL; Glucose (Liver function tests; Before): 5.8; T.P. (Liver function tests; Before): 5.8 g/dL; MIC (P. falciparum strain W2): 30 µM (≈ 11.3 µg/mL); HB (Haematological analysis; After treatment): 11.0 g/dL; PCV (Haematological analysis; After treatment): 35%; RBC (Haematological analysis; After treatment): 6.0 × 10^6 mm^3; WBC (Haematological analysis; After treatment): 10.5 × 10^3 mm^3; HB (Haematological analysis; Before treatment): 14.1 g/dL; PCV (Haematological analysis; Before treatment): 36%; RBC (Haematological analysis; Before treatment): 6.85 × 10^6 mm^3; WBC (Haematological analysis; Before treatment): 12.2 × 10^3 mm^3
2 | Cc1ccc(S(=O)(=O)NC(C)C(=O)NCC(=O)Nc2ccc3ccccc3c2)cc1 (centres unmarked) [Compound 7n, 2–(4-methylphenylsulfonamido)-N-(2-(naphthalene-2-ylamino)-2-oxoethyl)propanamide] (Tos-[ξA]-Gly-βNA) | 39 µg/mL (≈ 91.7 µM) | – | – | – | – | 123 µg/mL (≈ 289 µM) | 47.8% | 63.8% | 49.1% | 71.7% | 155 µg/mL (≈ 364 µM) | 617 µg/mL (≈ 1450 µM) | – | – | – | – | – | – | 2.34 µM (≈ 0.996 µg/mL) | 174 to 176 °C | –
3 | CC(NS(=O)(=O)c1ccccc1)C(=O)NCC(=O)Nc1cccc(F)c1 (centres unmarked) [Compound 7c] | – | 3.0 g/dL | 0.3 mg/dL | 3.5 g/dL | 0.3 mg/dL | 372 µg/mL (≈ 980 µM) | 48.3% | 40.2% | 51.3% | 48.7% | 3470 µg/mL (≈ 9140 µM) | 2690 µg/mL (≈ 7090 µM) | 23.5 µ/L | 61.5 µ/L | 0.5 mg/dL | 5.0 | 5.5 g/dL | 20.5 µ/L | 0.72 µM (≈ 0.273 µg/mL) | 125 to 127 °C | AST (Liver function tests; Before): 62.0 µ/L; Bilirubin (Liver function tests; Before): 0.3 mg/dL; Glucose (Liver function tests; Before): 5.6; T.P. (Liver function tests; Before): 5.8 g/dL; HB (Haematological analysis; After treatment): 9.8 g/dL; PCV (Haematological analysis; After treatment): 33%; RBC (Haematological analysis; After treatment): 6.0 × 10^6 mm^3; WBC (Haematological analysis; After treatment): 9.0 × 10^3 mm^3; HB (Haematological analysis; Before treatment): 14.5 g/dL; PCV (Haematological analysis; Before treatment): 38%; RBC (Haematological analysis; Before treatment): 7.5 × 10^6 mm^3; WBC (Haematological analysis; Before treatment): 10.3 × 10^3 mm^3; MIC (B. subtilis): 3470 µg/mL (≈ 9140 µM); MIC (K. pneumoniae): 129 µg/mL (≈ 340 µM)
